Measured values: PMC6792352, “Limited Chemical Structural Diversity Found to Modulate Thyroid Hormone Receptor in the Tox21 Chemical Library” (Environmental Health Perspectives, 2019)
Where two headings read alike, the source gives them in different places.

How the values were obtained:
[1] = tested on: thyroid hormone receptor (endogenous TRα and TRβ); assay: GH3-TRE-Ag-Followup confirmation (TOX21_TR_LUC_GH3_Agonist_Followup, aeid 2226); type: cell-based, rat; conditions: for AC50: confirmation, agonist mode, read-out: GH3-TRE-Ag-Followup AC50; for GH3-TRE-Ag-Followup hitc: hit call from tcpl
[2] = tested on: thyroid hormone receptor (endogenous TRα and TRβ); assay: GH3-TRE-Ag primary qHTS, luciferase reporter, agonist mode (TOX21_TR_LUC_GH3_Agonist, aeid 803); type: cell-based, rat; conditions: for GH3-TRE-Ag AC50 hitc: hit call from tcpl; for AC50: read-out: GH3-TRE-Ag AC50
[3] = target: T1, human TRβ ligand-binding domain (Homo sapiens, UniProt P10828); assay: TRb-bla agonist mammalian one-hybrid beta-lactamase assay (TOX21_TRB_BLA_Agonist_Followup_ratio, aeid 2236); type: cell-based; set-up: host or cells: GeneBLAzer UAS-bla HEK 293T; conditions: for AC50: HEK 293T one-hybrid, agonist mode, read-out: TRb-bla-Ag AC50; for TRb-bla hitc: hit call from tcpl, agonist; for Emax: read-out: EMax (% of Control) trb-bla-agonist-followup-1
T1 sequence (P10828 217-461 limits assumed): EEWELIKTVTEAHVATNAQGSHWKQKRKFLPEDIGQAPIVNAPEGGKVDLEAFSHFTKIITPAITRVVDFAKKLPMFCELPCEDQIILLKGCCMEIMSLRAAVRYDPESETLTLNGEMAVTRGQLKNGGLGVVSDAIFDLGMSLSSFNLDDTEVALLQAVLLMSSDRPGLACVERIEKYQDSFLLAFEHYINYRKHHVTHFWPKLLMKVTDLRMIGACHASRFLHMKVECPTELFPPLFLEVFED

[4] = target: T1, human TRβ ligand-binding domain; assay: TRb-coa LanthaScreen TR-FRET coactivator (SRC-2 peptide) recruitment, agonist (TOX21_TRB_COA_Agonist_Followup_ratio, aeid 2244); type: biochemical; set-up: host or cells: GeneBLAzer UAS-bla HEK 293T; conditions: for AC50: cell-free coactivator recruitment, read-out: TRb-coa-Ag AC50; for TRb-coa hitc: hit call from tcpl, agonist; for Emax: read-out: EMax (% of Control) trb-coa-agonist-followup-1
[5] = tested on: GH3-TRE-Luc cell line; assay: GH3-TRE-Via cell viability, CellTiter-Fluor (TOX21_TR_LUC_GH3_Antagonist_viability, aeid 805); conditions: hit call from tcpl
[6] = as above; conditions: rat
[7] = tested on: thyroid hormone receptor (TR); assay: Classification of TR actives across characterization assays (TR-Ag / RXR-Ag; TR model binary); conditions: for Categorization Code: TR agonist characterization; for Classification: TR-Ag = TR agonist, RXR-Ag = RXR agonist
Outline: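 GH3-TRE qHTS agonist, antagonist and viability modes over 8,305 compounds; 84 candidates rescreened in GH3-TRE-Ag, TRβ- and RXRα-UAS-bla HEK 293T one-hybrid assays, HEK293T viability, and TRα/TRβ coactivator recruitment. Actives classified binary after removing pharmaceuticals.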

[8] = target: T2, TRα ligand-binding domain (Homo sapiens, UniProt P10827); assay: TRa-coa LanthaScreen TR-FRET coactivator (SRC-2 peptide) recruitment, agonist (TOX21_TRA_COA_Agonist_Followup_ratio, aeid 2230); type: biochemical; conditions: for AC50: cell-free coactivator recruitment, read-out: TRa-coa-Ag AC50; for TRa-coa hitc: hit call from tcpl, agonist; for Emax: read-out: EMax (% of Control) tra-coa-agonist-followup-1
T2 construct: the receptor LBDs expressed as glutathione S-transferase (GST) fusion proteins; purchased
T2 sequence (P10827 163-410 isoform P10827-2 limits assumed, other chains not shown): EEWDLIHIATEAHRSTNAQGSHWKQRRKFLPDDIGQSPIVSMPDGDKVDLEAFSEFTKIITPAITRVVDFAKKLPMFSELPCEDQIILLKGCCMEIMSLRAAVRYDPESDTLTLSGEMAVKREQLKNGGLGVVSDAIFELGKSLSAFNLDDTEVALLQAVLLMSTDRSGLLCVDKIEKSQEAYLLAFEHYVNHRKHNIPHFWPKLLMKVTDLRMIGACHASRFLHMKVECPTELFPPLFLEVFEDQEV

[9] = target: T3, human RXRα (Homo sapiens, UniProt P19793); assay: RXRa-bla-Ag mammalian one-hybrid beta-lactamase assay (TOX21_TR_RXR_BLA_Agonist_Followup_ratio, aeid 2253); type: cell-based; conditions: for AC50: HEK 293T one-hybrid, agonist mode, inactive set to 1,000, read-out: RXRa-bla-Ag AC50; for tr-followup-rxr-bla-agonist-1 hitc: hit call from tcpl
T3 construct: host or cells: GeneBLAzer UAS-bla HEK 293T
T3 sequence (P19793 227-458 limits assumed): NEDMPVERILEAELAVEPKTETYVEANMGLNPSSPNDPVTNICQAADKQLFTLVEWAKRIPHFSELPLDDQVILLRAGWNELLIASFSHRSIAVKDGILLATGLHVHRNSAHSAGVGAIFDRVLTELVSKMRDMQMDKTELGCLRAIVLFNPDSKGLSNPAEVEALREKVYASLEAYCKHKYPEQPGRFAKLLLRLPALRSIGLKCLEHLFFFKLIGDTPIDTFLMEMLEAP

[10] = Global cytotoxicity: eighteen Tox21 cell viability assays; type: cell-based; conditions: read-out: Global cytotoxicity AC50 median
[11] = tested on: Tox21 cell viability assays (different cell types); assay: as above; type: cell-based
[12] = tested on: thyroid hormone receptor (endogenous TRα and TRβ); assay: GH3-TRE-Antag primary qHTS, luciferase reporter, antagonist mode with 1 nM T3 (TOX21_TR_LUC_GH3_Antagonist, aeid 804); type: cell-based, rat; conditions: antagonist mode, 1 nM T3; read-out: GH3-TRE-Antag AC50
[13] = tested on: GH3-TRE-Luc cell line; conditions: for TR_LUC_GH3_Antagonist_viability hitc: rat, 24 h
[14] = in vitro; conditions: rat, gh3-tre-luc cells, AC50 (uM) modified / 1000
[15] = read-out: EMax (% of Control) tr-followup-rxr-bla-agonist-1
[16] = median over 18 Tox21 cell viability assays (Judson et al. 2016, invitrodb_v2)
[17] = # active of 18 total Tox21 viability assays
[18] = median over Tox21 viability assays
[19] = primary qHTS, agonist mode, 24 h, top concentration 92 μM
[20] = antagonist candidates, inactive samples arbitrarily set to AC50=1,000 μM
[21] = median over 18 Tox21 cell viability assays, inactive set to 1,000

Compound	EMax (% of Control) gh3-tre-agonist-followup-1_agonist [1]	AC50 [1] [µM]	GH3-TRE-Ag-Followup hitc [1]	EMax (% of Control) gh3-tre-agonist [2]	GH3-TRE-Ag AC50 hitc [2]	AC50 [3] [µM]	TRb-bla hitc [3]	AC50 [4] [µM]	TRb-coa hitc [4]	Emax [4] [%]	TR_LUC_GH3_Antagonist_viability hitc [5]	AC50 at 24 h [6] [µM]	Categorization Code [7]	Classification [7]	AC50 [8] [µM]	TRa-coa hitc [8]	Emax [8] [%]	AC50 [10, 16] [µM]	GLOBAL CYTOTOXICITY cytotox.median [11, 18]	Emax [3] [%]	other results
CC(C)(C)CC(C)(C)c1ccc(O)c(Cc2ccc(Cl)cc2Cl)c1 [Clofoctol, reference compound]	34.4 % of Control	3	1	23.6 % of Control	1	> 92	0	8.93	1	64.9	1	8.04	RXR-Ag	RXR-Ag	8.92	1	55.5	16.7	16.7		AC50 [9]: 6.8 µM; tr-followup-rxr-bla-agonist-1 hitc [9]: 1; Emax [9, 15]: 36.1%; Emax ([9]; read-out: EMax in RXR assay): 36%; GLOBAL CYTOTOXICITY cytotox.number_Active [11, 17]: 16
N[C@@H](Cc1cc(I)c(Oc2cc(I)c(O)c(I)c2)c(I)c1)C(=O)O [Levothyroxine, reference compound]	100.3 % of Control		1	117.2 % of Control	1						0	> 92	TR-Ag	TR-Ag		1	171	> 92	>92		AC50 [2, 19]: 0.0061 µM; AC50 [9]: 1.36 µM; tr-followup-rxr-bla-agonist-1 hitc [9]: 0; Emax [9, 15]: 21.2%; GLOBAL CYTOTOXICITY cytotox.number_Active [11, 17]: 0
Nc1nc(F)nc2c1ncn2[C@@H]1O[C@H](CO)[C@@H](O)[C@@H]1O [Fludarabine, reference compound]												22.3									AC50 [2, 20]: > 92 µM; AC50 [10, 21]: > 92 µM; Active in global cytotoxicity assays (%) [11]: 1.7%; AC50 [12]: 16.3 µM
C[C@]12CC[C@H]3C(=CCc4cc(O)ccc43)[C@@H]1CCC2=O [Equilin, reference compound]	6.3 % of Control	> 92	0	90.8 % of Control	1	> 92	0	> 92	0	-0.4	1	85.1	RXR-Ag	RXR-Ag	> 92	0	1.7	> 92	>92	13.5	AC50 [9]: 0.986 µM; tr-followup-rxr-bla-agonist-1 hitc [9]: 1; Emax [9, 15]: 61.3%; GLOBAL CYTOTOXICITY cytotox.number_Active [11, 17]: 0
Cc1ccc2c(Cl)cc(Cl)c(O)c2n1 [5,7-Dichloro-8-hydroxy-2-methylquinoline]												1.56									AC50 [2, 20]: > 92 µM; AC50 [10, 21]: 13.6 µM; Active in global cytotoxicity assays (%) ([11]; percentage of 18 Tox21 viability assays with hitc=1): 13.6%; AC50 [12]: 1.5 µM
O=C(O)Cc1cc(I)c(Oc2cc(I)c(O)c(I)c2)c(I)c1 [Tetrac, 3,3ʹ,5,5ʹ-tetraiodothyroacetic acid]	123.6 % of Control	0.006	1	113.5 % of Control	1	0.0209	1	0.227	1	122	1	51.3	TR-Ag	TR-Ag	0.248	1	153	35.7	35.7	204	TR_LUC_GH3_Agonist_EMAX (% Control) ([2]; Table S5): 105.7 % Control; tr-followup-rxr-bla-agonist-1 hitc [9]: 1; Emax [9, 15]: 61.6%; GLOBAL CYTOTOXICITY cytotox.number_Active [11, 17]: 5
CC1=C(/C=C/C(C)=C\C=C\C(C)=C\C(=O)O)C(C)(C)CCC1 [9-cis Retinoic acid, reference compound]	76.0 % of Control	2.07	1	31.8 % of Control	1	> 92	0	> 92	0	-0.274		> 92	RXR-Ag	RXR-Ag	> 92	0	-0.13	> 92	>92	5.7	TR_LUC_GH3_Antagonist_viability hitc [13]: 0; GLOBAL CYTOTOXICITY cytotox.number_Active [11]: 0
N#CC(c1ccc(Cl)cc1)c1c(Cl)cc(-n2ncc(=O)[nH]c2=O)cc1Cl (centres unmarked) [Diclazuril]												> 92									AC50 [2, 20]: > 92 µM; cytotoxicity in GH3 viability assay [13]: lacked cytotoxicity; AC50 [10, 21]: 33 µM; Active in global cytotoxicity assays (%) [11]: 33.3%; active rate in Tox21 viability/cytotoxicity assays [11]: 33%; CC50 at 24 h [14]: > 50 µM
CC1=C(/C=C/C(C)=C/C=C/C(C)=C/C(=O)O)C(C)(C)CCC1 [all trans-Retinoic acid, reference compound]	97.2 % of Control	1.16	1	29.3 % of Control	1		1	> 92	0	0		66.7	RXR-Ag	RXR-Ag	> 92	0	-0.347	> 92	>92	31.1	AC50 [2, 19]: 0.234 µM; TR_LUC_GH3_Antagonist_viability hitc [13]: 1; GLOBAL CYTOTOXICITY cytotox.number_Active [11]: 0
CC1=C(/C=C/C(C)=C/C=C/C(C)=C\C(=O)O)C(C)(C)CCC1 [13-cis Retinoic acid, reference compound]	46.3 % of Control	0.0348	1	29.3 % of Control	1	> 92	0	> 92	0	-0.0945		81.3	RXR-Ag	RXR-Ag	> 92	0	-0.319	46.3		6.8	activity in GH3-TRE agonist assay [2]: partial agonist; EMax in GH3-TRE-Ag assay ([2]; percent of positive control T3): 24 % of control; activity in TRβ-bla as agonist [3]: not active; activity in TRb-coa biochemical assay [4]: not active; TR_LUC_GH3_Antagonist_viability hitc [13]: 1; GLOBAL CYTOTOXICITY cytotox.median [11]: 46.3; GLOBAL CYTOTOXICITY cytotox.number_Active [11]: 5
